# Experimental data taken from ChEMBL document CHEMBL1201862, “PubChem BioAssay data set” (2004).
# Calls of active or inactive are those of the source.
# Assays:
# [1] = target: T1, Sentrin-specific protease 8 (Homo sapiens, UniProt Q96LD8); type: functional;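 also: luminescence read-out of SENP8 inhibition, dose-response confirmation following an ultra-high-throughput screen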
# T1 sequence (Q96LD8 whole entry): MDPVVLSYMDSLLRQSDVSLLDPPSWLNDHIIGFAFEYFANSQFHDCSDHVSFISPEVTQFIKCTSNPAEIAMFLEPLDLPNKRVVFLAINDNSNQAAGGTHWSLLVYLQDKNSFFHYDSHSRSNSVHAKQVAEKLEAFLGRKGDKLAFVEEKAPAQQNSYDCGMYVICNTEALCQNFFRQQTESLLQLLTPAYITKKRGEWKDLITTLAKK
# [2] = target: T2, Apoptotic protease-activating factor 1 (Homo sapiens, UniProt O14727); type: functional
# T2 sequence (O14727 whole entry): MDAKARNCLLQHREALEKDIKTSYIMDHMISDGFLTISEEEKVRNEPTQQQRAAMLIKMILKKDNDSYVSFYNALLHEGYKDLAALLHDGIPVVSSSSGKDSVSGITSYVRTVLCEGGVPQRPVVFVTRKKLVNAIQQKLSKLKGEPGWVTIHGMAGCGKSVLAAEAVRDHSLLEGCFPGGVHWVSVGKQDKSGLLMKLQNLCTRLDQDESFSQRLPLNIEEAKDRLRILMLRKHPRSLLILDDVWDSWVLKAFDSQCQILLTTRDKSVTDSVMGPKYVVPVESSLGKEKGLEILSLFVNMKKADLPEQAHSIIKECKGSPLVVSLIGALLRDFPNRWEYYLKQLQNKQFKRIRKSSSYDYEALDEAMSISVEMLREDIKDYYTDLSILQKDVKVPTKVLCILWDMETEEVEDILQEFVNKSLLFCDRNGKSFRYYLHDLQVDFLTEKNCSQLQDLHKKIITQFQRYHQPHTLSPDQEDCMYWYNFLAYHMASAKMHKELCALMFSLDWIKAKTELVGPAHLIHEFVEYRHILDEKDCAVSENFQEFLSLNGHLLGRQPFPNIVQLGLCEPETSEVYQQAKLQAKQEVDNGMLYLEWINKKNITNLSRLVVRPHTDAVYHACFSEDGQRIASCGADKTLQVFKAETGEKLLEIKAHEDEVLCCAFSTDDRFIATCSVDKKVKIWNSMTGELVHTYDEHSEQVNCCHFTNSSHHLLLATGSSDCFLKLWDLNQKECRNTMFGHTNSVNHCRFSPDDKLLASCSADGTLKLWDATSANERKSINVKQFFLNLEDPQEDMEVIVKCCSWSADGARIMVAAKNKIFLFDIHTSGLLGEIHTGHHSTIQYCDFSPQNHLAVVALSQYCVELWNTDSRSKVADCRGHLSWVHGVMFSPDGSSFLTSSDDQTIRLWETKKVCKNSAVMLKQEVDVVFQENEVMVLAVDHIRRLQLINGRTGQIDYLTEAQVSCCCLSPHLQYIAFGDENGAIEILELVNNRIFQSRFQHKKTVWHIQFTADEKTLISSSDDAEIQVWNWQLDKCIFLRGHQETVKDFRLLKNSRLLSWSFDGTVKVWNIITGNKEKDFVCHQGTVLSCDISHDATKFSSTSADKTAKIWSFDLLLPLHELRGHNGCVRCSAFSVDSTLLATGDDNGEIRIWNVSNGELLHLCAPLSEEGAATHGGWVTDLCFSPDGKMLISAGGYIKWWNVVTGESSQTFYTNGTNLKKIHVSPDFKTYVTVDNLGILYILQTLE
# [3] = target: T3, Zinc finger protein mex-5 (Caenorhabditis elegans, UniProt Q9XUB2); experiment: potency of MEX-5 RNA-binding blockers – biochemical, C. elegans, fluorescence polarization, dose response (AID 1960)
# T3 sequence (Q9XUB2 whole entry): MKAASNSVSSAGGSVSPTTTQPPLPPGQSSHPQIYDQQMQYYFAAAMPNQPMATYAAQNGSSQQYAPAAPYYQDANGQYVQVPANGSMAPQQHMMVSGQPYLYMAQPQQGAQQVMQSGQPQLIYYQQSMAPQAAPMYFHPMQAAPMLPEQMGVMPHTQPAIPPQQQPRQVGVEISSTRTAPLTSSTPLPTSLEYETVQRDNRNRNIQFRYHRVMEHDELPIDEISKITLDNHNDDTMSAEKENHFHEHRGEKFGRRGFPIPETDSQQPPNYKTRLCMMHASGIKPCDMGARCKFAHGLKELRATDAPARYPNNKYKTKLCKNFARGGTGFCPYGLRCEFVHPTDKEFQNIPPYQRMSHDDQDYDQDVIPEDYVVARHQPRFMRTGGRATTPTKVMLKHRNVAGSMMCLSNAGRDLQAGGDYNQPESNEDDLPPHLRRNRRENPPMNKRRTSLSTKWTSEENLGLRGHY
# [4] = target: Serine/threonine-protein phosphatase (Homo sapiens, UniProt Q9BPW0); experiment: inhibition of protein phosphatase 5 activity – biochemical, fluorescence, dose response (AID 2395)
# Serine/threonine-protein phosphatase, sequence (Q9BPW0 whole entry): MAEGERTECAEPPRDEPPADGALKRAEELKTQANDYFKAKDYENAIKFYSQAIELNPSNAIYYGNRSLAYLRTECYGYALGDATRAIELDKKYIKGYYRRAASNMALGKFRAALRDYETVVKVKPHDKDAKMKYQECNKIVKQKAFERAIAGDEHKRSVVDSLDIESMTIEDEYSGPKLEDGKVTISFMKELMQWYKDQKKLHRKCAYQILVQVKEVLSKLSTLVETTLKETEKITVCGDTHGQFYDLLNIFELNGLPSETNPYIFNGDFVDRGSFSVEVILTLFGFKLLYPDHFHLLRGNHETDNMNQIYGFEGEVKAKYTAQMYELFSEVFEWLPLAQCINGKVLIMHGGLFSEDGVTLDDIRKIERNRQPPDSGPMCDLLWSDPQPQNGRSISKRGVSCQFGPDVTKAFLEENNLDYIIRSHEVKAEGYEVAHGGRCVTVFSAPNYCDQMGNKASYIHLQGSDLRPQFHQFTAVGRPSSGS
# [5] = target: Mitochondrial peptide methionine sulfoxide reductase (Bos taurus, UniProt P54149); type: functional;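 also: absorbance read-out, biochemical high-throughput dose-response screen for MsrA inhibitors, confirmatory; recombinant bovine MsrA coupled to E. coli TrxB with NADPH and selenocystamine; potency is for inhibitors of MsrA activity on DMSO substrate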
# Mitochondrial peptide methionine sulfoxide reductase, sequence (P54149 whole entry): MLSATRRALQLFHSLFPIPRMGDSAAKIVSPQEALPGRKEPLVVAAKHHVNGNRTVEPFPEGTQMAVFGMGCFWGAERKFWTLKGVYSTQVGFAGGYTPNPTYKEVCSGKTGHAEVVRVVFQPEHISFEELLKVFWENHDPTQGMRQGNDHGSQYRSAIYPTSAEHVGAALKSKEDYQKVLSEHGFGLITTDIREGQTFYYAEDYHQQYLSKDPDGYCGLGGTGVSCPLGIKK
SMILES,IC50 [1],IC50 [2],EC50 [3],IC50 [4],IC50 [5]
Cc1ccc(NC2=CC(=O)C(=O)c3ccccc32)cc1,21.6 µM (active),–,–,–,–
O=C(O)c1ccc(S(=O)(=O)/N=C2\C=C(Nc3ccccc3F)C(=O)c3ccccc32)cc1,–,3 µM (active),60.8 µM (active),> 67 µM (not active),14.2 µM (inactive)
